Test results published in US20110008465A1, “SESQUITERPENE FORMULATIONS, KITS AND METHODS OF USE THEREOF” (priority 2007, published 2011).
Counter-ions that a name gives are not always drawn.

How the values were obtained:
Experiment in all cases: Chou and Talalay combination assay with beta-caryophyllene
Conditions in all cases: anticancer drug in combination with beta-caryophyllene; Chou and Talalay CI; 48 h
A-549 (lung cancer) = assay type: cell-based, human
Method: (§1) Each solution was prepared fresh and use within 1 hour after preparation.
(§2) Cells were then harvested using trypsine-EDTA. Cells were counted using a hemocytometer and resuspended in DMEM+10% FBS medium.
(§3) Proliferation assay: Increasing concentrations of the anticancer agents and/or beta-caryophyllene were added to 96-well plate (100 μL per well). The final concentration of solvent in the culture medium was maintained below 0.5% (volume/volume) to avoid solvent toxicity.
(§4) The cells were incubated for 48 h at 37° C. and 5% CO2. Cytotoxicity was assessed using the resazurin reduction test (O'Brien et al., 2000). Fluorescence was measured on an automated 96-well Fluoroskan Ascent FI™ plate reader (Labsystems) using excitation and emission wavelengths of 530 nm and 590 nm, respectively. Resazurin was then removed.
(§5) Microplates were frozen at −20° C. overnight. Plates were thawed, a volume of 100 μl of 0.01% SDS in water was added to the wells, the plates were shaken at room temperature for 3 hours and then frozen once more at −20° C. overnight. […] Plates were shaken in the dark (at room temperature) for at least 2 hours, and fluorescence was measured on an automated 96-well Fluoroskan Ascent FI™ plate reader (Labsystems) using excitation and emission wavelengths of 360 nm and 460 nm, respectively.
(§6) Results were analyzed using the Chou and Talalay method (9) and may be interpreted as follow: Cl>1 represents an antagonist effect of beta-caryophyllene with the corresponding anticancer agent; Cl=1 represents an additive effect of beta-caryophyllene with the corresponding anticancer agent; Cl<1 represents a potentiating effect of beta-caryophyllene with the corresponding anticancer agent.

[1] = system: MDA-MB-231 (breast cancer); assay type: cell-based, human
Method: as §1, §2, §3, §4, §5, §6

DLD-1 (colon cancer) = assay type: cell-based, human
Method: as §1, §2, §3, §4, §5, §6

PA-1 (ovary cancer) = assay type: cell-based, human
Method: as §1, §2, §3, §4, §5, §6

MCF-7 (breast cancer) = assay type: cell-based, human
Method: as §1, §2, §3, §4, §5, §6

PC-3 (prostate cancer) = assay type: cell-based, human
Method: as §1, §2, §3, §4, §5

[2] = system: GL-261 (murine glioblastoma); assay type: cell-based
Method: as §1, §2, §3, §4, §5, §6

B16 (murine melanoma) = assay type: cell-based
Method: as §1, §2, §3, §4, §5, §6

[3] = system: U-251 (human glioblastoma); assay type: cell-based
Method: as §1, §2, §3, §4, §5, §6

MEL-2 (human melanoma) = assay type: cell-based
Method: as §1, §2, §3, §4, §5, §6

SMILES | Potentiating activity A-549 (A-549 (lung cancer)) | Potentiating activity MDA [1] | Potentiating activity DLD-1 (DLD-1 (colon cancer)) | Potentiating activity PA-1 (PA-1 (ovary cancer)) | Potentiating activity MCF-7 (MCF-7 (breast cancer)) | Potentiating activity PC-3 (PC-3 (prostate cancer)) | Potentiating activity GL-261 [2] | Potentiating activity B16 (B16 (murine melanoma)) | Potentiating activity U-251 [3] | Potentiating activity MEL-2 (MEL-2 (human melanoma))
O=NN(CCCl)C(=O)NCCCl [Carmustine, carmustine] | (1) (Very High: CI equal or below 1 at IC20 and Cl below 0.6 to IC50) | (3) (Moderate: 0.5 < CI < 0.8 at IC50) | (2) (High: CI below 0.5 at IC50) | (1) (Very High: potentiating or additive activity to IC20 and CI < 0.6 to IC50) | (1) (Very High: CI equal or below 1 at IC20 and Cl below 0.6 to IC50) | (1) (Very High: potentiating or additive activity to IC20 and CI < 0.6 to IC50) | (1) (Very High: potentiating or additive activity to IC20 and CI < 0.6 to IC50) | (1) (Very High: potentiating or additive activity to IC20 and CI < 0.6 to IC50) | (1) (Very High: potentiating or additive activity to IC20 and CI < 0.6 to IC50) | (1) (Very High: potentiating or additive activity to IC20 and CI < 0.6 to IC50)
N.N.[Cl][Pt][Cl] [Cisplatine, Cisplatin] | (2) (High: CI below 0.5 at IC50) | (3) (Moderate: 0.5 < CI < 0.8 at IC50) | (1) (Very High: CI equal or below 1 at IC20 and Cl below 0.6 to IC50) | (2) (High: CI < 0.5 to IC50) | (2) (High: CI below 0.5 at IC50) | (6) (Antagonist effect: CI > 1) | (6) (Antagonist effect: CI > 1) | (1) (Very High: potentiating or additive activity to IC20 and CI < 0.6 to IC50) | (6) (Antagonist effect: CI > 1) | (1) (Very High: potentiating or additive activity to IC20 and CI < 0.6 to IC50)
CC/C(=C(\c1ccccc1)c1ccc(OCCN(C)C)cc1)c1ccccc1 [Tamoxifen, tamoxifen citrate] | (3) (Moderate: 0.5 < CI < 0.8 at IC50) | (5) (Additive effect: CI = 1) | (2) (High: CI below 0.5 at IC50) | (2) (High: CI < 0.5 to IC50) | (6) (Antagonist effect: CI > 1) | (2) (High: CI < 0.5 to IC50) | (2) (High: CI < 0.5 to IC50) | (3) (Moderate: 0.5 < CI < 0.8 to IC50) | (1) (Very High: potentiating or additive activity to IC20 and CI < 0.6 to IC50) | (1) (Very High: potentiating or additive activity to IC20 and CI < 0.6 to IC50)
O=c1[nH]cc(F)c(=O)[nH]1 [5-fluorouracil, 5-Fluorouracil] | (6) (Antagonist effect: CI > 1) | (3) (Moderate: 0.5 < CI < 0.8 at IC50) | (3) (Moderate: 0.5 < CI < 0.8 at IC50) | (2) (High: CI < 0.5 to IC50) | (1) (Very High: CI equal or below 1 at IC20 and Cl below 0.6 to IC50) | (2) (High: CI < 0.5 to IC50) | (3) (Moderate: 0.5 < CI < 0.8 to IC50) | (1) (Very High: potentiating or additive activity to IC20 and CI < 0.6 to IC50) | (1) (Very High: potentiating or additive activity to IC20 and CI < 0.6 to IC50) | (1) (Very High: potentiating or additive activity to IC20 and CI < 0.6 to IC50)
